This passage reports AC50, IC50 and EC50 results from ChEMBL document CHEMBL1201862, “PubChem BioAssay data set” (2004).

Calls of active or inactive are those of the source.

The target of test [1] is Lysine-specific demethylase 4C (Homo sapiens, UniProt Q9H3R0). In words: GASC-1 (JMJD2C) histone demethylase inhibitors, dose response, biochemical, DELFIA europium, cherry-picked samples (AID 488835). In kind it is functional.
Test [2] concerns the target T1, G-protein coupled receptor 55 (Homo sapiens, UniProt Q9Y2T6). Description: SAR Analysis of Selective Antagonists of GPR55 using an Image-Based Assay - Set 4. [Related pubchem assays (depositor defined):AID2013, AID2026]. In kind it is functional.
For test [3], the target named is T1, G-protein coupled receptor 55. Description: GPR55 antagonists blocking LPI-driven arrestin recruitment, primary screen, imaging, U2OS, beta-arrestin-GFP, LPI agonist (AID 2013).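 Further: antagonist potency measured as reduced agonist-driven arrestin aggregation.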 In kind it is functional.
Test [4] deals with T2, Cannabinoid receptor 2 (Homo sapiens, UniProt P34972). Description: SAR analysis of antagonists of the Cannabinoid Receptor 2 using an Image-Based Assay. [Related pubchem assays (depositor defined):AID2013, AID2026]. In kind it is functional.
Test [5] deals with T2, Cannabinoid receptor 2. In words: SAR analysis of agonists of the Cannabinoid Receptor 2 using an Image-Based Assay. [Related pubchem assays (depositor defined):AID2013, AID2026]. The test is classed as functional.
Test [6] addresses T2, Cannabinoid receptor 2. In words: SAR analysis of agonists of the Cannabinoid Receptor 2 using an Image-Based Assay - Set 3. [Related pubchem assays (depositor defined):AID2013, AID2026]. The test is classed as functional.
Test [7] deals with T3, Cannabinoid receptor 1 (Homo sapiens, UniProt P21554). Description: SAR analysis of agonists of the Cannabinoid Receptor 1 using an Image-Based Assay - Set 2. [Related pubchem assays (depositor defined):AID2013, AID2026]. The test is classed as functional.
For test [8], the target named is T3, Cannabinoid receptor 1. In words: SAR analysis of antagonists of the Cannabinoid Receptor 1 using an Image-Based Assay - Set 2. [Related pubchem assays (depositor defined):AID2013, AID2026]. In kind it is functional.
In test [9] the target is T3, Cannabinoid receptor 1. In words: SAR analysis of antagonists of the Cannabinoid Receptor 1 using an Image-Based Assay - Set 4. [Related pubchem assays (depositor defined):AID2013, AID2026]. The test is classed as functional.
The target in test [10] is T4, G-protein coupled receptor 35 (Homo sapiens, UniProt Q9HC97). In words: SAR analysis of Antagonists of the GPR35 Receptor using an Image-Based Assay - Set 3. [Related pubchem assays (depositor defined):AID2013, AID2026]. The test is classed as functional.
The target of test [11] is T4, G-protein coupled receptor 35. In words: SAR analysis of Agonists of the GPR35 Receptor using an Image-Based Assay - Set 2. [Related pubchem assays (depositor defined):AID2013, AID2026]. In kind it is functional.
Test [12] deals with T2, Cannabinoid receptor 2. In words: SAR analysis of antagonists of the Cannabinoid Receptor 2 using an Image-Based Assay - Set 3. [Related pubchem assays (depositor defined):AID2013, AID2026]. The test is classed as functional.
Test [13] addresses T1, G-protein coupled receptor 55. Description: GPR55 antagonist potency of analogs, SAR follow-up, imaging, U2OS, beta-arrestin-GFP, LPI agonist, set 2 (AID 2820). The test is classed as functional.
A short description of test [14]: Counterscreen for activators of the function of SWI/SNF related, matrix associated, actin dependent regulator of chromatin, subfamily a, member 2 (SMARCA2, BRM): Luminescence-based cell-based high throughput dose response assay to identify non-selective compounds using the VP16 reporter assay. The test is classed as functional.
For test [15], the target named is SWI/SNF-related matrix-associated actin-dependent regulator of chromatin subfamily A member 2 (Homo sapiens, UniProt P51531). In words: Luminescence-based cell-based high throughput dose response assay to identify activators of the function of SWI/SNF related, matrix associated, actin dependent regulator of chromatin, subfamily a, member 2 (SMARCA2, BRM). In kind it is functional.

The target of another test is Phosphomannomutase 2 (Homo sapiens, UniProt O15305). In words: Counter screen SAR assay for PMM2 inhibitors via a fluorescence intensity assay. [Related pubchem assays (depositor defined):AID1545, AID1574].
The target of test [16] is T5, Mannose-6-phosphate isomerase (Homo sapiens, UniProt P34949).
T5 sequence (P34949 whole entry): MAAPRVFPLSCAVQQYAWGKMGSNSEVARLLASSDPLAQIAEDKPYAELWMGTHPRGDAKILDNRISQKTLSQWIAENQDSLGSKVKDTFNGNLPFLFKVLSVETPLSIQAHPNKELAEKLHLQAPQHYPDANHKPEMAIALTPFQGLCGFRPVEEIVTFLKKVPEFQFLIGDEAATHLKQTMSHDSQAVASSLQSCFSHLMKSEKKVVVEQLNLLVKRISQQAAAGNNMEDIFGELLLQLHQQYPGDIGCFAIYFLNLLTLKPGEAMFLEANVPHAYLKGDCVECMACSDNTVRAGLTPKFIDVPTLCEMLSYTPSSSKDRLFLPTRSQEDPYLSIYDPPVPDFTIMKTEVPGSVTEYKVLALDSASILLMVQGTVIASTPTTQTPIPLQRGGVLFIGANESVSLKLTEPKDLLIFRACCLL
In words: PMI enzyme inhibitors, confirmation, biochemical, fluorescence intensity (AID 1535).

Test [17] concerns the target Intestinal-type alkaline phosphatase (Mus musculus, UniProt P24822). Description: mouse intestinal alkaline phosphatase activators, dose response, biochemical, luminescence, uHTS hits (AID 488783). The test is classed as functional.
The target in test [18] is Intestinal-type alkaline phosphatase (Homo sapiens, UniProt P09923). Description: activation of human intestinal alkaline phosphatase – biochemical, dose response (AID 488873). The test is classed as functional.
Test [19] has as its target T6, Alkaline phosphatase, tissue-nonspecific isozyme (Homo sapiens, UniProt P05186).
T6 sequence (P05186 whole entry): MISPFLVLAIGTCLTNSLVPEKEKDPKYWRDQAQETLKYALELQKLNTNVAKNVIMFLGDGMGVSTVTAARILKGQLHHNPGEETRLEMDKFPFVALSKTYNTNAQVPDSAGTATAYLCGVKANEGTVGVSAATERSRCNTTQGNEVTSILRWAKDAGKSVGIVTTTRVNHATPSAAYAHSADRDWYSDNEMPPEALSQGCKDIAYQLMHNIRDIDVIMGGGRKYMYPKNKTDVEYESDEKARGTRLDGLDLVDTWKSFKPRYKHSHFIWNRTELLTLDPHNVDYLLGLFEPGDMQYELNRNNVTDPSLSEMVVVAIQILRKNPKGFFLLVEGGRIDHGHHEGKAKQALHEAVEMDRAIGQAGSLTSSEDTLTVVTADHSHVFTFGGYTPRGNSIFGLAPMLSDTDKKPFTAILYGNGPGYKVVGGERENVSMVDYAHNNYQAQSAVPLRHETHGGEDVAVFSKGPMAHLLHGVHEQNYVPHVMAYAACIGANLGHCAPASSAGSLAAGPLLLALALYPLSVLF
In words: TNAP enzyme activators, dose response, selectivity assay for mouse IAP activator project, biochemical, TNAP isozyme, mouse IAP uHTS hits (AID 488880). The test is classed as functional.

T4 sequence (Q9HC97 whole entry): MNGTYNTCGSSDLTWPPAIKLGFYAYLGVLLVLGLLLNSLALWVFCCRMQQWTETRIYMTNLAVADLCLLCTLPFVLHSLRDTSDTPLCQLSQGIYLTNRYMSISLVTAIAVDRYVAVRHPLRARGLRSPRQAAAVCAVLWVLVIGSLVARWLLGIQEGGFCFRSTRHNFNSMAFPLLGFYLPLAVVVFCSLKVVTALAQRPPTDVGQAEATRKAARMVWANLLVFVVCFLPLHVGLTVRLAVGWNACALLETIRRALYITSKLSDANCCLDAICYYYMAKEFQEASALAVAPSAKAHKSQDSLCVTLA
T1 sequence (Q9Y2T6 whole entry): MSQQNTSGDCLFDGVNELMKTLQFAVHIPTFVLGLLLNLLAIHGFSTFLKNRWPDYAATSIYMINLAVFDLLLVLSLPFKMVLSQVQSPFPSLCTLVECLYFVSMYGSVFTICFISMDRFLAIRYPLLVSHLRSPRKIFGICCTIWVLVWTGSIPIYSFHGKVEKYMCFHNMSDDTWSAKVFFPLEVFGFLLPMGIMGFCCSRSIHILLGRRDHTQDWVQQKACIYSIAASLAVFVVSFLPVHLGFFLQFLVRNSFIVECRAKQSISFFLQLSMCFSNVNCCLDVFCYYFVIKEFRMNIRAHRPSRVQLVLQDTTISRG
T3 sequence (P21554 whole entry): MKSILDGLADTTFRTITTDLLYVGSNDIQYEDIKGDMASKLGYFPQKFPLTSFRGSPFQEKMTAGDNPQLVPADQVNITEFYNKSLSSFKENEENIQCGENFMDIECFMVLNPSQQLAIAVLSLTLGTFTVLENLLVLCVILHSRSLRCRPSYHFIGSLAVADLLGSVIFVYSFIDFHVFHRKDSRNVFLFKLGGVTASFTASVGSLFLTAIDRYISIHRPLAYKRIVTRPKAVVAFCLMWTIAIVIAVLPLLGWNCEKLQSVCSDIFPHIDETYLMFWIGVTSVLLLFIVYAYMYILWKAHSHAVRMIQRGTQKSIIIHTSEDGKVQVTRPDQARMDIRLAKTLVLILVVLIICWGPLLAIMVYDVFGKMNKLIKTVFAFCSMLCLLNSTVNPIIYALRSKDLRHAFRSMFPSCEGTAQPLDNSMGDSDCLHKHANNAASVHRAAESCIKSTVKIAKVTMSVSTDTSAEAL
T2 sequence (P34972 whole entry): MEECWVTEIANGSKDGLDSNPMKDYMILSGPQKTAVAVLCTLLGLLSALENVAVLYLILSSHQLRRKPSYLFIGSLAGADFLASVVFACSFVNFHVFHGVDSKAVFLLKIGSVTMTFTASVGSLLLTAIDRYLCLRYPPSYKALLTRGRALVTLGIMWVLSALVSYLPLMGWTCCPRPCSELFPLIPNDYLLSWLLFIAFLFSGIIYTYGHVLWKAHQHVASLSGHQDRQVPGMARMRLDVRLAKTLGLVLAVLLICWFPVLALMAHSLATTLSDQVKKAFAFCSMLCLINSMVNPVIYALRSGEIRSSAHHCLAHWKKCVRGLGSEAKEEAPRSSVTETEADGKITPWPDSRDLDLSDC
Phosphomannomutase 2, sequence (O15305 whole entry): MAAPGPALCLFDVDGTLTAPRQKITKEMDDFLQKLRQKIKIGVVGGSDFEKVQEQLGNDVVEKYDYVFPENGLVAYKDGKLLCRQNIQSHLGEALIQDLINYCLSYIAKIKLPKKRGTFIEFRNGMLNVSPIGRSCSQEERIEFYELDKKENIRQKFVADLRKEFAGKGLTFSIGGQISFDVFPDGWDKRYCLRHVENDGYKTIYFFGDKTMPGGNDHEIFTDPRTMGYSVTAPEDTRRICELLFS
Intestinal-type alkaline phosphatase (Mus musculus, UniProt P24822), sequence (P24822 whole entry): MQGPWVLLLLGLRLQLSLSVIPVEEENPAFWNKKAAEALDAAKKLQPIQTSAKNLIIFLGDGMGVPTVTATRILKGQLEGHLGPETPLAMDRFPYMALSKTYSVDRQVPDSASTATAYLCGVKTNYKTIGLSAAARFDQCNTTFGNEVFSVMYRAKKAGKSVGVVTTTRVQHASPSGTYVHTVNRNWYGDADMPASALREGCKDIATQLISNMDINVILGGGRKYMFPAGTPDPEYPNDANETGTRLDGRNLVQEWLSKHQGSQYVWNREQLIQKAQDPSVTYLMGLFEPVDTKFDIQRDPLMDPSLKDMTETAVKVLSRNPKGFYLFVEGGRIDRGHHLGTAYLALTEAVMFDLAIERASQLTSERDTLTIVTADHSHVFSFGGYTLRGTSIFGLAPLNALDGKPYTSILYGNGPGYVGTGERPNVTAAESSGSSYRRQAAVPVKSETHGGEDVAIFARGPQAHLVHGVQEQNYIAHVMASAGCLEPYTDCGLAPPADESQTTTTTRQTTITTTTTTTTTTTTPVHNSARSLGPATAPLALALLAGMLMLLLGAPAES
SWI/SNF-related matrix-associated actin-dependent regulator of chromatin subfamily A member 2, sequence (P51531 whole entry): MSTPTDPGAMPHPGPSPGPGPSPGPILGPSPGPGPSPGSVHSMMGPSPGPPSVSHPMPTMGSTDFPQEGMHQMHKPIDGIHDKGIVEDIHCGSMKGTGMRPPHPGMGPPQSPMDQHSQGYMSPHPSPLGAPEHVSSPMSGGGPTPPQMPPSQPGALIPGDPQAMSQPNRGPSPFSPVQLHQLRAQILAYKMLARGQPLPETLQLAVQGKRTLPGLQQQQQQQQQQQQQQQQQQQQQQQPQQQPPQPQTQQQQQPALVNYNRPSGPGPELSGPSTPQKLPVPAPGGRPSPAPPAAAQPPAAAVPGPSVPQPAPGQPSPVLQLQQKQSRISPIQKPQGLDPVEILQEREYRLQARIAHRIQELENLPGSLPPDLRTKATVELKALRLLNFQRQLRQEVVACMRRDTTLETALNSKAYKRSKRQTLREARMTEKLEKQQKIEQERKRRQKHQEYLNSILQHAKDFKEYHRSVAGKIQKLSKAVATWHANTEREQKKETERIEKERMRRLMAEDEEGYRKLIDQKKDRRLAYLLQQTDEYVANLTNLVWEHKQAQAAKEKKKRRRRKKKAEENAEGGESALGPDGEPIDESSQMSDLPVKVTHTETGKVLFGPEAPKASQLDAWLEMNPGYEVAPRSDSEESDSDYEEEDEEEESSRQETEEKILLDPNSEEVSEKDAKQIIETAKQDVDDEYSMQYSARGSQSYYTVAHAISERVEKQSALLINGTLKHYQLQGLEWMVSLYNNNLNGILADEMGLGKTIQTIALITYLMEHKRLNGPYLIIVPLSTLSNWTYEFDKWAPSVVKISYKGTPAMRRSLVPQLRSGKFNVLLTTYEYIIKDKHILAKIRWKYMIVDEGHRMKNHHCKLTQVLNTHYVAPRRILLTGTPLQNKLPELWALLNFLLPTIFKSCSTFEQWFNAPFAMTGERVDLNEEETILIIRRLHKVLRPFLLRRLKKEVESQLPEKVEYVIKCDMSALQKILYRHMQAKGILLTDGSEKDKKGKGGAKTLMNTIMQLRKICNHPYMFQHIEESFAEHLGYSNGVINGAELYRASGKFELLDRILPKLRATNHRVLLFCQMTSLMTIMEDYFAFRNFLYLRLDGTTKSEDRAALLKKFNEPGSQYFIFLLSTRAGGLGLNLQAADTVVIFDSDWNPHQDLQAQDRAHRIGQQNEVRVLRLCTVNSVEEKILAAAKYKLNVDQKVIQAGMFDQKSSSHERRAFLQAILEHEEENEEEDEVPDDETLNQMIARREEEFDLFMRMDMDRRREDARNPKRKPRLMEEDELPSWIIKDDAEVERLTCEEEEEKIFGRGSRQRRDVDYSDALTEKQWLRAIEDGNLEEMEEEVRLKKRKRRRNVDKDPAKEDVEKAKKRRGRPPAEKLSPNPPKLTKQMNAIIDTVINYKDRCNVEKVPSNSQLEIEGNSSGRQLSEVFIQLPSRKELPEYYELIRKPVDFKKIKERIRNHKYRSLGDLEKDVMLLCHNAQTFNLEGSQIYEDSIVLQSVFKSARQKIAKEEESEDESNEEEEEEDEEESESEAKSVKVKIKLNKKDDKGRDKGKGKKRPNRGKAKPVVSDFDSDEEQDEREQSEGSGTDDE
Lysine-specific demethylase 4C, sequence (Q9H3R0 whole entry): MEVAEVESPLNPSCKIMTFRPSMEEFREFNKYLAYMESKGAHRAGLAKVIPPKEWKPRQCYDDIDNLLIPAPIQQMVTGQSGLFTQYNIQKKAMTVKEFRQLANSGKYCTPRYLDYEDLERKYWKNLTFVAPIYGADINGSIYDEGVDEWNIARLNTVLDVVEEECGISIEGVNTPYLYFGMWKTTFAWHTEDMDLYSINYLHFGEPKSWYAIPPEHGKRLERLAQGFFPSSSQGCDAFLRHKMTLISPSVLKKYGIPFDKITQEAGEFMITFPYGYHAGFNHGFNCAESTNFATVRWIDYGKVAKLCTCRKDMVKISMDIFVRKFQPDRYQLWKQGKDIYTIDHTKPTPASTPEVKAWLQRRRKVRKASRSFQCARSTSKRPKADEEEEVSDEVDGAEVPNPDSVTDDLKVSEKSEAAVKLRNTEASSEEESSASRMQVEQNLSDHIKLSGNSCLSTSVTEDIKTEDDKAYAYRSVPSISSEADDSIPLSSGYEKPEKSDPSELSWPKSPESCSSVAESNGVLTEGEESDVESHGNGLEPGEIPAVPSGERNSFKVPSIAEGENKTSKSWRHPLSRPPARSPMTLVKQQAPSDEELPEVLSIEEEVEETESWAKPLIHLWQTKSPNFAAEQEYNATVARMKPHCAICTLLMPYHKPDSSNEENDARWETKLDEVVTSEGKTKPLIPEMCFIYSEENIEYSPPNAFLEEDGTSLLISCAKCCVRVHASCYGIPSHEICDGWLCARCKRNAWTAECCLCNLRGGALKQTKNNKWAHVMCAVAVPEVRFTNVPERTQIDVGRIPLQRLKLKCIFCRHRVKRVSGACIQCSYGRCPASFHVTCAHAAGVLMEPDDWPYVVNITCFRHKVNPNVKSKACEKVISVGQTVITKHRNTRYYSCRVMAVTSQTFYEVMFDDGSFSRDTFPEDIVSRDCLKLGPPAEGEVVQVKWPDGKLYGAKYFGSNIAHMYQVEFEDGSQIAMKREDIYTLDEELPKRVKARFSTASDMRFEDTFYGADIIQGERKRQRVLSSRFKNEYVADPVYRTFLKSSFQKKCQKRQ

As to `COc1ccc(/C=N/Nc2cc(=O)n(C)c(=O)n2C)cc1OC`, the AC50 in [1] is 7.21 µM (active).
Regarding `CCOC(=O)c1cc2c(=O)n3ccccc3nc2n(Cc2ccccc2)c1=N`, the IC50 is > 32 µM (inactive) in [2]; < 0.5 µM (active) in test [3]; > 32 µM (inactive) on Cannabinoid receptor 2 [4]; > 32 µM (inactive) on Cannabinoid receptor 1 [8]; 0.069 µM (active) at Cannabinoid receptor 1 [9]; > 32 µM (inactive) in test [10]. Further, the figures for the IC50 (at Cannabinoid receptor 2 [12]; in [13]) were > 32 µM (inactive) and 0.878 µM (active), respectively. The EC50 (at Cannabinoid receptor 2 [5]; at Cannabinoid receptor 2 [6]; at Cannabinoid receptor 1 [7]; in test [11]) was > 32 µM (inactive) throughout.
Consider `Cc1ccc2nc3c(cc(C(=O)NCc4ccco4)c(=N)n3C3CCCC3)c(=O)n2c1`, for which the EC50 in [14] is > 91.2 µM (inactive); at Cannabinoid receptor 2 [5], > 32 µM (inactive); at Cannabinoid receptor 1 [7], > 32 µM (inactive); in [11], > 32 µM (inactive); in [15] it was > 91.2 µM (inactive). Moreover, the IC50 in test [3] is 3.98 µM (active); on Cannabinoid receptor 2 [4], > 32 µM (inactive); on Cannabinoid receptor 1 [8] it was > 32 µM (inactive); in test [10], > 32 µM (inactive); in [13], 0.354 µM (active).
With `FC(F)(F)c1nnc(/N=c2\ssnc2Cl)s1`, the IC50 at Phosphomannomutase 2 was > 100 µM (inactive); in test [16], 20.8 µM (active).
In the case of `Cc1cc(C)c(S(=O)(=O)Nc2ccc(O)c(Sc3nnc[nH]3)c2)cc1C`, the EC50 is 24.7 µM (active) in test [17], 22.5 µM (active) in [18] and 42.4 µM (active) in test [19].
